The values that follow come from patent publication US10647713B2 (Nimbus Lakshmi, Inc., priority 2016, dated 2020).

Sequence of human TYK2 (JH2domain-pseudokinase) (P29597 556-888): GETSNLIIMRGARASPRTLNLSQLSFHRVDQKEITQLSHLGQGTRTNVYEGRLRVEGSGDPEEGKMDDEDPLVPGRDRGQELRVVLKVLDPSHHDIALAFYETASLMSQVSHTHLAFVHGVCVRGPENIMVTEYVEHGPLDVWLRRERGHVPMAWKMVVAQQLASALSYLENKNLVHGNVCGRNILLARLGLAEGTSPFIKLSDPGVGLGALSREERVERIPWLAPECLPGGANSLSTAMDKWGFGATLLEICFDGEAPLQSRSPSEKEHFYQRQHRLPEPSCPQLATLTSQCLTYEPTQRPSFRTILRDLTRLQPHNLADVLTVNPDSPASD

This assay concerns the target human TYK2 (JH2domain-pseudokinase) (Homo sapiens (Human), UniProt P29597). The assay is described as follows: TYK2 JH2 Domain Binding Assay (KINOMEscan, DiscoveRx). As to conditions: 11-point dilution, duplicate. The method, boiled down: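 Kd from duplicate 11-point 3-fold dilutions starting at 30,000 nM, fitted by Hill equation with slope fixed at −1. Compounds (final 0.9% DMSO) displace DNA-tagged HEK293-expressed TYK2 JH2 fusion (<0.1 nM) from ligand-coated beads over 1 h at room temperature; eluted kinase read by qPCR.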
With `CN(c1cc([C@H]2CCCCO2)ccc1Nc1cc(NC(=O)C2CC2)nc2[nH]c(C(F)F)nc12)S(C)(=O)=O` [I-218, (R)—N-(2-(difluoromethyl)-7-((2-(N-methylmethylsulfonamido)-4-(tetrahydro-2H-pyran-2-yl)phenyl)amino)-3H-imidazo[4,5-b]pyridin-5-yl)cyclopropanecarboxamide], the Kd fell in the range of 0.1 to 0.5 nM.

For `CN(c1cc([C@@H]2CCCCO2)ccc1Nc1cc(NC(=O)C2CC2)nc2[nH]c(C(F)F)nc12)S(C)(=O)=O` [I-219, (S)—N-(2-(difluoromethyl)-7-((2-(N-methylmethylsulfonamido)-4-(tetrahydro-2H-pyran-2-yl)phenyl)amino)-3H-imidazo[4,5-b]pyridin-5-yl)cyclopropanecarboxamide], the Kd lay within 0.1 to 0.5 nM. As to `CS(=O)(=O)c1cc(C2CCC2)ccc1Nc1cc(NC(=O)C2CC2)nc2[nH]c(C(F)F)nc12` [I-220, N-(7-((4-cyclobutyl-2-(methylsulfonyl)phenyl)amino)-2-(difluoromethyl)-3H-imidazo[4,5-b]pyridin-5-yl)cyclopropanecarboxamide], the Kd lay within 1 to 10 nM. The compound `Cc1nc2c(Nc3ccc(C4CCC4)cc3S(C)(=O)=O)cc(NC(=O)C3CC3)nc2[nH]1` [I-221, N-(7-((4-cyclobutyl-2-(methylsulfonyl)phenyl)amino)-2-methyl-3H-imidazo[4,5-b]pyridin-5-yl)cyclopropanecarboxamide] displayed a Kd of 0.5 to 1 nM.

As for `COCc1ccc(Nc2cc(NC(=O)C3CC3)nc3[nH]c(C(F)F)nc23)c(S(C)(=O)=O)c1` [I-222, N-(2-(difluoromethyl)-7-((4-(methoxymethyl)-2-(methylsulfonyl)phenyl)amino)-3H-imidazo[4,5-b]pyridin-5-yl)cyclopropanecarboxamide], the Kd was 0.1 to 0.5 nM. In turn, `COCc1ccc(Nc2cc(NC(=O)C3CC3)nc3[nH]c(C)nc23)c(S(C)(=O)=O)c1` [I-223, N-(7-((4-(methoxymethyl)-2-(methylsulfonyl)phenyl)amino)-2-methyl-3H-imidazo[4,5-b]pyridin-5-yl)cyclopropanecarboxamide] came in with a Kd of 0.1 to 0.5 nM. Turning to `Cc1nc2c(Nc3ccc(-c4ccn(C)n4)cc3S(C)(=O)=O)cc(NC(=O)[C@@H]3C[C@@H]3F)nc2[nH]1` [I-224, (1S,2S)-2-fluoro-N-(2-methyl-7-((4-(1-methyl-1H-pyrazol-3-yl)-2-(methylsulfonyl)phenyl)amino)-3H-imidazo[4,5-b]pyridin-5-yl)cyclopropane-1-carboxamide], the Kd was below 0.1 nM. As for `Cc1nc2c(Nc3ccc(-c4ccn(C)n4)cc3S(C)(=O)=O)cc(NC(=O)[C@H]3C[C@H]3F)nc2[nH]1` [I-225, (1R,2R)-2-fluoro-N-(2-methyl-7-((4-(1-methyl-1H-pyrazol-3-yl)-2-(methylsulfonyl)phenyl)amino)-3H-imidazo[4,5-b]pyridin-5-yl)cyclopropane-1-carboxamide], the figure is 0.1 to 0.5 nM.

On to `Cc1nc2c(Nc3ccc(C4CCOCC4)cc3S(C)(=O)=O)cc(NC(=O)C3CC3)nc2[nH]1` [I-226, N-(2-methyl-7-((2-(methylsulfonyl)-4-(tetrahydro-2H-pyran-4-yl)phenyl)amino)-3H-imidazo[4,5-b]pyridin-5-yl)cyclopropanecarboxamide], for which the Kd lay in the range of 0.1 to 0.5 nM. As for `Cc1nc2c(Nc3ccc(-c4cn(C)cn4)cc3S(C)(=O)=O)cc(NC(=O)[C@H]3CC3(F)F)nc2[nH]1` [I-227, (R)-2,2-difluoro-N-(2-methyl-7-((4-(1-methyl-1H-imidazol-4-yl)-2-(methylsulfonyl)phenyl)amino)-3H-imidazo[4,5-b]pyridin-5-yl)cyclopropane-1-carboxamide], the figure is 0.1 to 0.5 nM. The result for `Cc1nc2c(Nc3ccc(-c4cn(C)cn4)cc3S(C)(=O)=O)cc(NC(=O)[C@@H]3CC3(F)F)nc2[nH]1` [I-228, (S)-2,2-difluoro-N-(2-methyl-7-((4-(1-methyl-1H-imidazol-4-yl)-2-(methylsulfonyl)phenyl)amino)-3H-imidazo[4,5-b]pyridin-5-yl)cyclopropane-1-carboxamide] reads 1 to 10 nM. The result for `CS(=O)(=O)N(c1ccccc1Nc1cc(Nc2cccc(C#N)n2)nc2[nH]c(C(F)F)nc12)C(F)F` [I-229, N-(2-((5-((6-cyanopyridin-2-yl)amino)-2-(difluoromethyl)-3H-imidazo[4,5-b]pyridin-7-yl)amino)phenyl)-N-(difluoromethyl)methanesulfonamide] reads 1 to 10 nM; that for `CN(c1cc(-c2cnn(C)c2)ccc1Nc1cc(NC(=O)[C@@H]2CC2(F)F)nc2[nH]c(C(F)F)nc12)S(C)(=O)=O` [I-230, (S)—N-(2-(difluoromethyl)-7-((4-(1-methyl-1H-pyrazol-4-yl)-2-(N-methylmethylsulfonamido)phenyl)amino)-3H-imidazo[4,5-b]pyridin-5-yl)-2,2-difluorocyclopropane-1-carboxamide], 0.5 to 1 nM.

For the compound `CN(c1cc(-c2cnn(C)c2)ccc1Nc1cc(NC(=O)[C@H]2CC2(F)F)nc2[nH]c(C(F)F)nc12)S(C)(=O)=O` [I-231, (R)—N-(2-(difluoromethyl)-7-((4-(1-methyl-1H-pyrazol-4-yl)-2-(N-methylmethylsulfonamido)phenyl)amino)-3H-imidazo[4,5-b]pyridin-5-yl)-2,2-difluorocyclopropane-1-carboxamide], the Kd is 1 to 10 nM. The result for `CS(=O)(=O)c1cc(C2CCOCC2)ccc1Nc1cc(NC(=O)C2CC2)nc2[nH]c(C(F)F)nc12` [I-232, N-(2-(difluoromethyl)-7-((2-(methylsulfonyl)-4-(tetrahydro-2H-pyran-4-yl)phenyl)amino)-3H-imidazo[4,5-b]pyridin-5-yl)cyclopropanecarboxamide] reads 0.1 to 0.5 nM; that for `Cc1nc2c(Nc3ccc(-c4cnn(C)c4)cc3N(C)S(C)(=O)=O)cc(NC(=O)[C@@H]3CC3(F)F)nc2[nH]1` [I-233, (S)-2,2-difluoro-N-(2-methyl-7-((4-(1-methyl-1H-pyrazol-4-yl)-2-(N-methylmethylsulfonamido)phenyl)amino)-3H-imidazo[4,5-b]pyridin-5-yl)cyclopropane-1-carboxamide], 0.1 to 0.5 nM; that for `Cc1nc2c(Nc3ccc(-c4cnn(C)c4)cc3N(C)S(C)(=O)=O)cc(NC(=O)[C@H]3CC3(F)F)nc2[nH]1` [I-234, (R)-2,2-difluoro-N-(2-methyl-7-((4-(1-methyl-1H-pyrazol-4-yl)-2-(N-methylmethylsulfonamido)phenyl)amino)-3H-imidazo[4,5-b]pyridin-5-yl)cyclopropane-1-carboxamide], 1 to 10 nM. The result for `CN(c1cc(-c2cnn(C)c2)ccc1Nc1cc(NC(=O)[C@H]2C[C@H]2F)nc2[nH]c(C(F)F)nc12)S(C)(=O)=O` [I-236, (1R, 2R)—N-(2-(difluoromethyl)-7-((4-(1-methyl-1H-pyrazol-4-yl)-2-(N-methylmethylsulfonamido)phenyl)amino)-3H-imidazo[4,5-b]pyridin-5-yl)-2-fluorocyclopropane-1-carboxamide] reads 0.1 to 0.5 nM; that for `Cn1ccc(-c2ccc(Nc3cc(NC(=O)[C@@H]4CC4(F)F)nc4[nH]c(C(F)F)nc34)c(S(C)(=O)=O)c2)n1` [I-237, (S)—N-(2-(difluoromethyl)-7-((4-(1-methyl-1H-pyrazol-3-yl)-2-(methylsulfonyl)phenyl)amino)-3H-imidazo[4,5-b]pyridin-5-yl)-2,2-difluorocyclopropane-1-carboxamide], 0.5 to 1 nM. As for `Cn1ccc(-c2ccc(Nc3cc(NC(=O)[C@H]4CC4(F)F)nc4[nH]c(C(F)F)nc34)c(S(C)(=O)=O)c2)n1` [I-238, (R)—N-(2-(difluoromethyl)-7-((4-(1-methyl-1H-pyrazol-3-yl)-2-(methylsulfonyl)phenyl)amino)-3H-imidazo[4,5-b]pyridin-5-yl)-2,2-difluorocyclopropane-1-carboxamide], the figure is 1 to 10 nM.

Compound `Cc1nc2c(Nc3ccc(-c4ccn(C)n4)cc3S(C)(=O)=O)cc(NC(=O)[C@@H]3CC3(F)F)nc2[nH]1` [I-239, (S)-2,2-difluoro-N-(2-methyl-7-((4-(1-methyl-1H-pyrazol-3-yl)-2-(methylsulfonyl)phenyl)amino)-3H-imidazo[4,5-b]pyridin-5-yl)cyclopropane-1-carboxamide] showed a Kd of 0.1 to 0.5 nM. The result for `Cc1nc2c(Nc3ccc(-c4ccn(C)n4)cc3S(C)(=O)=O)cc(NC(=O)[C@H]3CC3(F)F)nc2[nH]1` [I-240, (R)-2,2-difluoro-N-(2-methyl-7-((4-(1-methyl-1H-pyrazol-3-yl)-2-(methylsulfonyl)phenyl)amino)-3H-imidazo[4,5-b]pyridin-5-yl)cyclopropane-1-carboxamide] reads 1 to 10 nM. Turning to `Cc1nc2c(Nc3ccc(-c4nn(C)cc4C)cc3S(C)(=O)=O)cc(NC(=O)C3CC3)nc2[nH]1` [I-241, N-(7-((4-(1,4-dimethyl-1H-pyrazol-3-yl)-2-(methylsulfonyl)phenyl)amino)-2-methyl-3H-imidazo[4,5-b]pyridin-5-yl)cyclopropanecarboxamide], the Kd is below 0.1 nM. On to `CP(C)(=O)c1ccccc1Nc1cc(NC(=O)C2CC2)nc2[nH]c(C(F)F)nc12` [I-242, N-(2-(difluoromethyl)-7-((2-(dimethylphosphoryl)phenyl)amino)-3H-imidazo[4,5-b]pyridin-5-yl)cyclopropanecarboxamide], for which the Kd fell in the range of 0.5 to 1 nM.

Consider `Cc1nc2c(Nc3ccccc3P(C)(C)=O)cc(NC(=O)C3CC3)nc2[nH]1` [I-243, N-(7-((2-(dimethylphosphoryl)phenyl)amino)-2-methyl-3H-imidazo[4,5-b]pyridin-5-yl)cyclopropanecarboxamide], for which the Kd is above 10 nM.

Regarding `Cn1cnc(-c2ccc(Nc3cc(NC(=O)[C@H]4CC4(F)F)nc4[nH]c(C(F)F)nc34)c(S(C)(=O)=O)c2)c1` [I-244, (R)—N-(2-(difluoromethyl)-7-((4-(1-methyl-1H-imidazol-4-yl)-2-(methylsulfonyl)phenyl)amino)-3H-imidazo[4,5-b]pyridin-5-yl)-2,2-difluorocyclopropane-1-carboxamide], the Kd is 0.5 to 1 nM.
